# Measurements as given in patent US20250255876A1, “COMPOSITIONS AND METHODS FOR CANCER TREATMENT” (ARIEL SCIENTIFIC INNOVATIONS LTD., priority 2021, published 2025).
# Columns and labels:
# U2OS cells = assay: Colony survival assay, U2OS cells; type: cell-based; settings: varying cisplatin, 48 hours
# Procedure: H1975 cells were plated in 24-well plates at 50,000 cells/well (for 50 µM inhibitor treatment) or 20,000 cells/well (for […] inhibitor treatment). U2OS and A549 cells were plated in 24-well plates at 5000 cells/well. The next day, cells were treated with varying concentrations of cisplatin, either with or without added inhibitor compound. After 48 hours of cisplatin+compound treatment, the cells were washed 3 times with PBS×1 and fresh media applied. After 4 days of recovery, the cells were stained with methylene blue and imaged using a Nikon SMZ25 stereomicroscope. The images were analyzed using the ImageJ (National Institutes of Health) area measurement tool to quantify total colony size in each well.
# [1] = test system: γH2AX foci in H1975 cells; assay: γH2AX foci immunofluorescence, H1975 cells; type: cell-based, human; settings: for number of γH2AX foci/cell, combined treatment: overnight
# Procedure: H1975 and A549 cells were grown on glass coverslips in 12-well plates with the appropriate media, and fixed in 4% paraformaldehyde for 10 minutes at room temperature. Cells were permeabilizedin 0.5% TritonX100 in PBS×1 for 10 minutes at room temperature and then blocked in 5% BSA in 0.1% PBS×1-Tween for 1 hour at room temperature. Anti-phospho-Histone H2A.X primary antibody ([…]; 05-636-25UG) diluted 1:400 in 5% BSA in 0.1% PBS×1-Tween was added for 1 hour at room temperature. Fluorescent-dye conjugated secondary antibody was applied for 1 hour at room temperature. The coverslips were washed between each step with PBS×1. Nuclei were stained with DAPI (1:2000 dilution) at room temperature in the dark for 3 minutes. Coverslips were mounted on glass slides and imaged using an Olympus 1×81 microscope. For all treatments, cells with fewer than 80 foci were scored manually (FIG. 4B), and cells with more than 80 foci and very bright signals were scored automatically by using the “Analyze Particles” function in ImageJ (National Institutes of Health) after setting a suitable threshold.
# Next, the inventors examined whether combined treatment of cisplatin with c #2 or c #3 correlates with an increase in DNA damage, which might explain the compound's sensitization effect. A549 and H1975 cell lines were exposed to combined overnight treatment with cisplatin and c #2 or c #3, and the levels of γH2AX foci were monitored. In both cell lines, a clear increase in the number of foci was observed after combined treatment, compared to cells treated with cisplatin or compounds alone (FIG. 12A).
# Combined treatment of cisplatin with c #3 correlates with an increase in DNA damage. Levels of γ-H2AX foci, a marker for DNA double-strand breaks, were compared in H1975, A549 and B16F10 cell lines.
# MAD2L2-Rev1 complex = MAD2L2-Rev1 complex (Homo sapiens, UniProt Q9UI95); assay: GFP-Trap co-immunoprecipitation of YFP-Rev1 and myc-MAD2L2 in HEK293 cells; type: cell-based; set-up: expressed in transfected cells; host or cells: HEK293; settings: 50 μM; for reduction of MAD2L2-Rev1 binding (complex formation): 24 h
# Chain of MAD2L2-Rev1 complex (Q9UI95 whole entry, one chain of several): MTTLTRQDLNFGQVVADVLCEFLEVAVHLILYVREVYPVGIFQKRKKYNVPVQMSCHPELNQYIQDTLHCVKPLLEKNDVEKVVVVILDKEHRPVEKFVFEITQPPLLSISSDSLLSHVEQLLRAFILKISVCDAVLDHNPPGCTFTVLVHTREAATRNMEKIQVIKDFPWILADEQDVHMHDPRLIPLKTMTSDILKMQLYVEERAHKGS
# Procedure: HEK293 cells were plated in 10-cm plates at 40-50% confluency. The next day, the cells were co-transfected with YFP-Rev1 and myc-MAD2L2 plasmids. After 24 hours, 50 µM inhibitor compounds (or DMSO negative control) were applied to the cells and growth continued for another 24 hours. The cells were then harvested and protein extraction was performed, followed by IP pulldown of the YFP-Rev1 species with GFP-Trap A conjugated agarose beads, to assess the levels of Co-IP'ed myc-REV7.
# Medium/DMEM (Biological Industries Israel Beit Haemek; 01-052-1A) with 4.5 g/l D-glucose, 4 mM L-glutamine, 10% fetal bovine serum (Biological Industries Israel Beit Haemek; 04-007-1A), and 1% penicillin/streptomycin. The H1975 cells were cultured in RPMI 1640 medium (Biological Industries Israel Beit Haemek; 01-100-1A) with 4.5 g/l D-glucose, 4 mM L-glutamine, 10% fetal bovine serum (Biological Industries Israel Beit Haemek; 04-007-1A), and 1% penicillin/streptomycin. Transfections of HEK293 cells with plasmid DNA were performed using the Avalanche® Everyday Transfection Reagent (EZT-EVDY-1); according to the manufacturer's protocol. Briefly, cells were passaged the day before transfection to reach a confluency of 60-70%. The next day, the selected plasmid DNA was incubated in serum-free media with the recommended volume of transfection reagent for 20 minutes at room temperature. This transfection mix was gently added to the prepared cell culture plate(s) for continued incubation at 37° C. For co-IP experiment plates, after 24 hours, the relevant compound (DMSO vehicle, c #2, or c #3) was added in pre-warmed media, and the transfected plates were incubated for another 24 hours at 37° C. until harvesting.
# HEK293 cells were harvested 48 h following co-transfection and lysed in extraction buffer (50 mM Tris pH 8, 150 mM NaCl, 20 mM EDTA, 50 mM NaF, 1% TritonX) supplemented with Merck® 1000×protease inhibitor (539134). Cells were lysed on ice for 30 minutes and centrifuged at 20,000 g for 30 minutes at 4° C. For immunoblotting, extracts were boiled in Laemmli buffer for 5 min. Equal amounts of protein sample (30 μg) were loaded on 8%-12% acrylamide gel and transferred to a nitrocellulose membrane (Amersham). For immunoprecipitations, clarified lysates were supplemented with 7 μl of equilibrated GFP-Trap antibody-conjugated agarose beads (Chromotek; gta-20) and incubated for 1-2 h at 4° C. Beads were washed three times in PBS buffer and boiled in Laemmli buffer for 5 minutes. The following primary antibodies were used for immunoblotting: Myc (Santa Cruz; SC-40) 1:1000 dilution, GFP (Santa Cruz, SC-9996) 1:1000 dilution, MAD2L2 (ProteinTech; 12683-1-AP). […]
# [2] = H1975, 5 μM cisplatin + 50 μM compound
Structure (SMILES),cell survival with cisplatin plus inhibitor (U2OS cells),"number of γH2AX foci/cell, combined treatment [1, 2]",Rev1-Rev7 binding interaction (in words) (MAD2L2-Rev1 complex),reduction of MAD2L2-Rev1 binding (complex formation) (MAD2L2-Rev1 complex),"increase in γ-H2AX foci/cell in co-treated cells ([1]; H1975, 5 μM cisplatin + 50 μM c #3, 16 h)","cells with more than 80 foci or very bright signal, combined treatment [1, 2]","γ-H2AX signal, c #3 alone ([1]; H1975, c #3 alone)"
CNc1nc(N2CCCCC2)nc(-n2cnc(SCC(N)=O)n2)n1 [Compound 2],reduction in cell survival,significant increase in the number of γH2AX foci/cell,reduction in Rev1-Rev7 binding interaction,about 50%,,,
Cc1oc(-c2ccco2)nc1CC(=O)N[C@@H](C(=O)O)c1ccccc1 [Compound 3],reduction in cell survival,significant increase in the number of γH2AX foci/cell,reduction in Rev1-Rev7 binding interaction,about 80%,2 fold,significantly more abundant,no effect on the γ-H2AX signal
